pIC50: −log10 of the molar value. *1 amine or outer side, *2 acyl side, *3 side chain or, on linkers, in order; H or OH if unused. Where a SMILES comes first, the peptide text is derived from it. Bridges are numbered along the chain shown (N, C = ends). [ ]: non-standard residue; d: D form. The star is where a group is joined. hPhe(3-Cl-4-CF3) = N[C@@H](CCc1ccc(C(F)(F)F)c(Cl)c1)C(=O)O; NPrPhe(4-CF3) = CCCN[C@@H](Cc1ccc(C(F)(F)F)cc1)C(=O)O; X30 = CCN([C@H](C(=O)[*:2])C1CCCC1)[*:1]; NMeGly(cPent) = CN[C@H](C(=O)O)C1CCCC1; NMeD = CN[C@@H](CC(=O)O)C(=O)O; NMeL = CN[C@@H](CC(C)C)C(=O)O; Morpholide = C1CN(*)CCO1; Ac5c = NC1(C(=O)O)CCCC1; Sar = CNCC(=O)O
Columns and labels:
[1] = molecular target: GDP-bound NRAS wild-type protein (Homo sapiens, UniProt P01111); assay: Binding to NRAS by surface plasmon resonance (SPR), KD and KD ratio to KRAS
GDP-bound NRAS wild-type protein, sequence (P01111 whole entry): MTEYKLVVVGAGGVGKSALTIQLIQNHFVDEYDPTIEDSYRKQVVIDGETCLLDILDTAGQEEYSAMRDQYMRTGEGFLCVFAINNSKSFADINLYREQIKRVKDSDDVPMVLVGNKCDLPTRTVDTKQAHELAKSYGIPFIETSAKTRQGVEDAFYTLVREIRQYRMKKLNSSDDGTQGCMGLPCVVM
Method in brief: (§1)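 GDP-loaded biotinylated Avi-tag RAS proteins (E. coli-expressed) captured on a Biotin CAPture chip at ~100–300 RU; single-cycle kinetics at 30°C, 100 µL/min, 75 s injections of rising compound concentrations. HBS pH 7.4 running buffer with 1 mM DTT, 10 mM MgCl2, 10 µM GDP, 4% DMSO. KD from 1:1 binding fit.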

HRAS wild-type protein = HRAS wild-type protein (Homo sapiens, UniProt P01112); assay: Binding to HRAS by surface plasmon resonance (SPR), KD and KD ratio to KRAS
HRAS wild-type protein, sequence (P01112 whole entry): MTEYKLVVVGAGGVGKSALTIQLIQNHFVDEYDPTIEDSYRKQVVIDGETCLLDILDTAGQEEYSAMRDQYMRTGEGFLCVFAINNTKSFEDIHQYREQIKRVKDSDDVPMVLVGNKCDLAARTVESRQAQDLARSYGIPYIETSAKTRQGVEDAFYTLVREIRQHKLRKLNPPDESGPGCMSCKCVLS
Method in brief: as §1

[2] = test system: human lung cancer strain NCI-H441; format: cell-based
Method in brief: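 Readout: […] after the ATP-based reagent. Compound: serial dilutions in dimethyl sulfoxide.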

[3] = ratio of the KD value with respect to GDP-bound NRAS wild-type protein to the KD value with respect to KRAS
[4] = ratio of the KD value with respect to HRAS wild-type protein to the KD value with respect to KRAS
[5] = ratio of KD value for GDP-bound NRAS wild-type protein to KD value for KRAS (SPR)
[6] = ratio of KD value for HRAS wild-type protein to KD value for KRAS (SPR)
[7] = ratio of KD for GDP-bound NRAS wild-type protein to KD for KRAS
[8] = ratio of KD for HRAS wild-type protein to KD for KRAS

| SMILES | pIC50 [2] | NRAS /KRAS [1, 3] | HRAS /KRAS (HRAS wild-type protein; [4]) | NRAS /KRAS [1, 5] | HRAS /KRAS (HRAS wild-type protein; [6]) | NRAS /KRAS [1, 7] | HRAS /KRAS (HRAS wild-type protein; [8]) |
| --- | --- | --- | --- | --- | --- | --- | --- |
| CC[C@H](C)[C@@H]1NC(=O)[C@H](C2CC2)N(C)C(=O)C[C@@H](C(=O)N(C)CC)N(C)C(=O)[C@H](C2CCCC2)N(C)C(=O)C2(CCC2)NC(=O)[C@@H]2C[C@H](C)CN2C(=O)[C@H](CCc2ccc(C(F)(F)F)c(OC)c2)NC(=O)CN(C)C(=O)[C@H](Cc2ccc(C(F)(F)F)cc2)N2CC/C=C\C[C@@H](C2=O)N(C)C(=O)CN(C)C1=O [PP2069] | 7.56 | AA (a compound having 20 or more is denoted as AA) | A (a compound having 10 or more and less than 20 is denoted as A) | – | – | – | – |
| CC[C@H](C)[C@@H]1NC(=O)[C@H](CC(C)C)N(C)C(=O)C[C@@H](C(=O)N2CCOCC2)N(C)C(=O)[C@H](C2CCCC2)N(C)C(=O)C2(CCCC2)NC(=O)[C@@H]2CCCN2C(=O)[C@H](CCc2ccc(C(F)(F)F)c(Cl)c2)NC(=O)CN(C)C(=O)[C@H](Cc2ccc(OC(F)(F)F)cc2)N2C/C=C\CC[C@@H](C2=O)N(C)C(=O)CN(C)C1=O [PP0610] | 6.16 | B (a compound having 3 or more and less than 10 is denoted as B) | B (a compound having 3 or more and less than 10 is denoted as B) | – | – | – | – |
| CCO[C@@H]1C[C@H]2C(=O)NC3(CC(C)(C)C3)C(=O)N(C)[C@@H](C3CCCC3)C(=O)N(C)[C@H](C3CCC3)CC(=O)N(C)[C@@H](CC3CC3)C(=O)N[C@@H]([C@@H](C)CC)C(=O)N(C)CC(=O)N(C)[C@H]3C/C=C\CCN(C3=O)[C@@H](Cc3ccc(C(F)(F)F)cc3)C(=O)N(C)CC(=O)N[C@@H](CCc3cc(F)c(C(F)(F)F)c(F)c3)C(=O)N2C1 [PP1635] | 7.44 | – | – | B (a compound having 3 or more and less than 10 is denoted as B) | A (a compound having 10 or more and less than 20 is denoted as A) | – | – |
| CCCO[C@H]1CCN2C(=O)[C@H](CCc3cc(F)c(C(F)(F)F)c(F)c3)NC(=O)CN(C)C(=O)[C@H](Cc3ccc(C(F)(F)F)cc3)N3CCCCC[C@@H](C3=O)N(C)C(=O)CN(C)C(=O)[C@H]([C@@H](C)CC)NC(=O)[C@H](CC(C)C)N(C)C(=O)C[C@@H](C(=O)N3CCOCC3)N(C)C(=O)[C@H](C3CCCC3)N(C)C(=O)C3(CCC3)NC(=O)[C@H]12 [PP1069] | 6.90 | – | – | – | – | A (a compound having 10 or more and less than 20 is denoted as A) | B (a compound having 3 or more and less than 10 is denoted as B) |
| CCC[C@H]1C(=O)N[C@@H]([C@@H](C)CC)C(=O)N(C)CC(=O)N(C)[C@H]2C/C=C\CCN(C2=O)[C@@H](Cc2ccc(C)cc2)C(=O)N(C)CC(=O)N[C@@H](CCc2cc(Cl)c3c(ccn3C)c2)C(=O)N2C[C@H](OCC)C[C@H]2C(=O)NC2(CC(C)(C)C2)C(=O)N(C)[C@@H](C(CC)CC)C(=O)N(C)[C@H](C(=O)N(C)C)CC(=O)N1C [PP2898] | 7.01 | – | – | – | – | A (a compound having 10 or more and less than 20 is denoted as A) | A (a compound having 10 or more and less than 20 is denoted as A) |
| CCCOC[C@H]1C(=O)N[C@@H]([C@@H](C)CC)C(=O)N(C)CC(=O)N(C)[C@H]2C/C=C\CCN(C2=O)[C@@H](Cc2ccc(C)cc2)C(=O)N(C)CC(=O)N[C@@H](CCc2cc(F)c(C(F)(F)F)c(F)c2)C(=O)N2C[C@H](CCC)C[C@H]2C(=O)NC2(CCCC2)C(=O)N(C)[C@@H](C2CCCC2)C(=O)N(C)[C@H](C(=O)N(C)C)CC(=O)N1C [PP2229] | 7.40 | A (a compound having 10 or more and less than 20 is denoted as A) | A (a compound having 10 or more and less than 20 is denoted as A) | – | – | – | – |
| CC[C@H](C)[C@@H]1NC(=O)[C@H](CC(C)C)N(C)C(=O)C[C@@H](C(=O)N2CCOCC2)N(C)C(=O)[C@H](C2CCCC2)N(C)C(=O)C2(CCCC2)NC(=O)[C@@H]2CCCN2C(=O)[C@H](CCc2ccc(C(F)(F)F)c(Cl)c2)NC(=O)CN(C)C(=O)[C@H](C2CCCC2)N(CC)C(=O)CN(C)C(=O)CN(C)C1=O [PP0024] ([NMeL]I[Sar][Sar][X30][Sar][hPhe(3-Cl-4-CF3)]P[Ac5c][NMeGly(cPent)][NMeD]-Morpholide; lactam N-11) | 6.99 | – | – | – | – | B (a compound having 3 or more and less than 10 is denoted as B) | C (A compound having a KD ratio of 0.1 or more and less than 3 is denoted as C) |

Stronger by pIC50 [2], values ahead:

| pIC50 [2] | SMILES | NRAS /KRAS [1, 3] | HRAS /KRAS (HRAS wild-type protein; [4]) | NRAS /KRAS [1, 5] | HRAS /KRAS (HRAS wild-type protein; [6]) | NRAS /KRAS [1, 7] | HRAS /KRAS (HRAS wild-type protein; [8]) |
| --- | --- | --- | --- | --- | --- | --- | --- |
| 8.31 | CCCN(C)C(=O)[C@@H]1CC(=O)N(C)[C@@H](CC(F)(F)F)C(=O)N[C@@H]([C@@H](C)CC)C(=O)N(C)CC(=O)N(C)[C@H]2C/C=C\CCN(C2=O)[C@@H](Cc2ccc(C(F)(F)F)cc2)C(=O)N(C)CC(=O)N[C@@H](CCc2cc(F)c(C(F)(F)F)c(F)c2)C(=O)N2C[C@H](OCC)C[C@H]2C(=O)NC2(CCC2)C(=O)N(C)[C@@H](C2CCCC2)C(=O)N1C [PP1702] | – | – | A (a compound having 10 or more and less than 20 is denoted as A) | A (a compound having 10 or more and less than 20 is denoted as A) | – | – |
| 8.39 | CCC[C@H]1C(=O)N[C@@H]([C@@H](C)CC)C(=O)N(C)CC(=O)N(C)[C@H]2C/C=C\CCN(C2=O)[C@@H](Cc2ccc(C)cc2)C(=O)N(C)CC(=O)N[C@@H](CCc2cc(F)c(C(F)(F)F)c(F)c2)C(=O)N2CC3(CC3)C[C@H]2C(=O)NC2(CC(C)(C)C2)C(=O)N(C)[C@@H](CC(C)(C)C)C(=O)N(C)[C@H](C(=O)N(C)C)CC(=O)N1C [PP2997] | – | – | – | – | A (a compound having 10 or more and less than 20 is denoted as A) | B (a compound having 3 or more and less than 10 is denoted as B) |
| 7.70 | CC[C@H](C)[C@@H]1NC(=O)[C@H](CC)N(C)C(=O)C[C@@H](C(=O)N(C)C)N(C)C(=O)[C@H](C2CCCC2)N(C)C(=O)C2(CC(C)(C)C2)NC(=O)[C@@H]2C[C@@H](C)CN2C(=O)[C@H](CCc2ccc(C(F)(F)F)c(OC)c2)NC(=O)CN(C)C(=O)[C@H](Cc2ccc(C)cc2)N2CC/C=C\C[C@@H](C2=O)N(C)C(=O)CN(C)C1=O [PP1838] | – | – | A (a compound having 10 or more and less than 20 is denoted as A) | A (a compound having 10 or more and less than 20 is denoted as A) | – | – |
| 8.68 | CC[C@H](C)[C@@H]1NC(=O)[C@H](CC(C)C)N(C)C(=O)C[C@@H](C(=O)N2CCOCC2)N(C)C(=O)[C@H](C2CCCC2)N(C)C(=O)C2(CCC2)NC(=O)[C@@H]2C[C@@H](OCC(F)F)CN2C(=O)[C@H](CCc2cc(F)c(C(F)(F)F)c(F)c2)NC(=O)CN(C)C(=O)[C@H](Cc2ccc(C(F)(F)F)cc2)N2CCCC[C@@H](C2=O)N(C)C(=O)CN(C)C1=O [PP1002] | – | – | – | – | B (a compound having 3 or more and less than 10 is denoted as B) | B (a compound having 3 or more and less than 10 is denoted as B) |
| 8.55 | CCCN1C(=O)CN(C)C(=O)CNC(=O)[C@H]([C@@H](C)CC)NC(=O)[C@H](CC(C)C)N(C)C(=O)C[C@@H](C(=O)N2CCOCC2)N(C)C(=O)[C@H](C2CCCC2)N(C)C(=O)C2(CCCC2)NC(=O)[C@@H]2CCCN2C(=O)[C@H](CCc2ccc(C(F)(F)F)c(Cl)c2)NC(=O)CN(C)C(=O)[C@@H]1Cc1ccc(C(F)(F)F)cc1 [PP0155] ([NMeL]IG[Sar][NPrPhe(4-CF3)][Sar][hPhe(3-Cl-4-CF3)]P[Ac5c][NMeGly(cPent)][NMeD]-Morpholide; lactam N-11) | – | – | – | – | B (a compound having 3 or more and less than 10 is denoted as B) | C (A compound having a KD ratio of 0.1 or more and less than 3 is denoted as C) |
| 8.62 | CC[C@H](C)[C@@H]1NC(=O)[C@H](CC(C)C)N(C)C(=O)C[C@@H](C(=O)N(C)C)N(C)C(=O)[C@H](C2CCCC2)N(C)C(=O)C2(CCCC2)NC(=O)[C@@H]2CC(F)(F)CN2C(=O)[C@H](CCc2cc(F)c(C(F)(F)F)c(F)c2)NC(=O)CN(C)C(=O)[C@H](Cc2ccc(C(F)(F)F)cc2)N2CCCC[C@@H](C2=O)N(C)C(=O)CN(C)C1=O [PP0576] | C (A compound having a KD ratio of 0.1 or more and less than 3 is denoted as C) | B (a compound having 3 or more and less than 10 is denoted as B) | – | – | – | – |
| 8.32 | CCO[C@@H]1C[C@H]2C(=O)NC3(CC(C)(C)C3)C(=O)N(C)[C@@H](C3CCCC3)C(=O)N(C)[C@H](C(=O)N(C)C)CC(=O)N(C)[C@@H](CC(F)(F)F)C(=O)N[C@@H]([C@@H](C)CC)C(=O)N(C)CC(=O)N(C)[C@H]3C/C=C\CCN(C3=O)[C@@H](Cc3ccc(C(F)(F)F)cc3)C(=O)N(C)CC(=O)N[C@@H](CCc3ccc(Cl)c(Cl)c3)C(=O)N2C1 [PP2832] | – | – | – | – | A (a compound having 10 or more and less than 20 is denoted as A) | A (a compound having 10 or more and less than 20 is denoted as A) |
| 8.68 | CCO[C@@H]1C[C@H]2C(=O)N(C)C3(CCC3)C(=O)N(C)[C@@H](C3CCCC3)C(=O)N(C)[C@H](C(=O)N(C)C)CC(=O)N(C)[C@@H](CC)C(=O)N[C@@H]([C@@H](C)CC)C(=O)N(C)CC(=O)N(C)[C@H]3C/C=C\CCN(C3=O)[C@@H](Cc3ccc(C)cc3)C(=O)N(C)CC(=O)N[C@@H](CCc3cc(F)c(C(F)(F)F)c(F)c3)C(=O)N2C1 [PP1781] | – | – | A (a compound having 10 or more and less than 20 is denoted as A) | B (a compound having 3 or more and less than 10 is denoted as B) | – | – |

— patent publication EP4603105A1, “PHARMACEUTICAL COMPOSITION CONTAINING CYCLIC COMPOUND HAVING SELECTIVE KRAS INHIBITORY EFFECT AGAINST HRAS AND NRAS” (CHUGAI SEIYAKU KABUSHIKI KAISHA, priority 2022, dated 2024)
